Data on six molecules can be found in US20080139628A1 (ARENA PHARMACEUTICALS, INC., priority 2004, published 2008).

Series [1] relates to niacin-induced flushing in mice. The series is described as follows: Block of niacin-induced flushing in mice, Laser Dopler. The series is classed as in vivo. To be noted: for change from baseline (flush) at 3 minutes / change above baseline (flush) at 15 minutes: mice given compound about 10 minutes before niacin; for change from baseline (flush) at 3 minutes: 3 minutes after niacin; for change above baseline (flush) at 15 minutes: at/within 15 minutes after niacin. On the procedure:
Flushing was measured using a Laser Dopler.
In these experiments, the control group contained anesthetized mice that were administered niacin alone and flushing above baseline was measured over time. […]

For a further series, the system named is free fatty acid release. The series is described as follows: NEFA competition: free fatty acids in blood of mice (NEFA-C assay kit). The series is classed as in vivo. To be noted: for concentration of free fatty acid: blood after 10 minutes (vehicle sample 0.9 mM). On the procedure:
After 10 minutes the mice were euthanized and blood was collected. The blood samples were processed and tested for free fatty acid release using the non-esterified fatty-acid (NEFA) assay (the NEFA-C assay kit from Waco Chemicals USA, Richmond, Va.).

The next series has as its system mice. The series is described as follows: Flush in response to PGD2 in mice treated with niacin receptor partial agonist. The series is classed as in vivo. To be noted: mice pretreated with Compound 1 and niacin. Here is the method:
After re-establishment of baseline, PGD2 was administered and flushing was recorded. […] Baseline was then re-established at 20% above baseline and PGD2 was administered.

Series [2] deals with dysmenorrhea or painful menstruation. The following applies: 80 women, 100 mg niacin twice daily, then every 2 to 3 hours during heavy cramps; cited from earlier work.

On to `O=C(O)c1cc(Cc2cccc(Cl)c2)[nH]n1` [Compound 3, 5-(3-Chloro-benzyl)-1H-pyrazole-3-carboxylic acid], for which, in series [1], the “change from baseline (flush) at 3 minutes” value (from here on “change from baseline (flush)”) is “about 18%” and the “change above baseline (flush) at 15 minutes” value (shortened to “change above baseline (flush)”) was “about 13%”.
For `O=C(O)c1cc(Cc2cccc(Br)c2)[nH]n1` [Compound 4, 5-(3-Bromo-benzyl)-1H-pyrazole-3-carboxylic acid] the same measures were 15% and “about 30%”.
Consider `C1Cc2[nH]nc(-c3nnn[nH]3)c2C1` [Compound 1, 3-(1H-Tetrazol-5-yl)-1,4,5,6-tetrahydro-cyclopentapyrazole], for which, in series [1], the “change from baseline (flush)” value is listed as 10% and the “change above baseline (flush)” value was “about 20%”. Besides, in series [1] (mice, partial agonist given prior to niacin), the “flushing induced by niacin” value is “significantly reduced”. Also, in the series on free fatty acid release (Compound 1 plus niacin), the “interference with the reduction in free fatty acids induced by niacin” value is given as “does not interfere” and the “concentration of free fatty acid” value stood at 0.38 mM.
Consider `CCCCC[C@H](O)/C=C/[C@H]1C(=O)C[C@H](O)[C@@H]1C/C=C\CCCC(=O)O` [PGD2, prostaglandin D2], for which, in the series on mice, the “time of flush peak after PGD2 administration” value was “about 6 minutes”. In addition, in the series with mice (baseline re-established at 20% above baseline), the “time after PGD2 administration at which flushing began” value is recorded as “about 1.5 minutes”. In addition, the “flush peak, % of the original baseline” value in the series on mice (about 6 minutes after PGD2) is “about 70%”.
Turning to `O=C(O)c1cccnc1` [niacin, nicotinic acid, reference compound], the “time after which mice began to flush” value in series [1] (anesthetized mice, niacin alone) stood at 1.5 min. The “subjects who experienced significant relief” value in series [2] is on record as “About 90%”. Further, in the series on free fatty acid release (vehicle plus niacin), the “concentration of free fatty acid” value is recorded as 0.4 mM.
As to `O=C(O)c1cc(Cc2cccc(F)c2)[nH]n1` [Compound 2, 5-(3-Fluoro-benzyl)-1H-pyrazole-3-carboxylic acid], in series [1], the “change from baseline (flush)” value turned out to be 0% and the “change above baseline (flush)” value is “about 15%”.
